Read-outs that look alike come from different tables or passages of the source.
Tests used:
[1] = system: undecaprenyl diphosphate synthase (UPPS); conditions: read-out: UPPS IC50; cited from earlier work
MRSA strain (S. aureus) = conditions: cited from earlier work
S. aureus = S. aureus in vitro; cited from earlier work
[2] = Toxicity against mammalian cells; assay type: cell-based
Yersinia pestis = conditions: cited from earlier work
Bacillus anthracis = conditions: cited from earlier work
[3] = target: undecaprenyl diphosphate synthase (UPPS); assay: UPPS inhibition; assay type: biochemical; conditions: read-out: UPPS IC50; both UPPS enzymes, approximate
E. coli (K12) = assay: E. coli cell growth inhibition; conditions: Escherichia coli, read-out: E. coli EC50, cell growth inhibition, E. coli K12

For `O=C(Nc1cccc(C2=NCCN2)c1)c1ccc(-c2ccc(C(=O)Nc3cccc(C4=NCCN4)c3)cc2)cc1` [Compound 1, N4,N4'-bis(3-(4,5-dihydro-1H-imidazol-2-yl)phenyl)-[1,1'-biphenyl]-4,4'-bicarboxamide], the IC50 [1] is listed as about 100 nM, the adverse side-effects (MRSA strain (S. aureus); S. aureus mouse model of infection) is listed as “no adverse side-effects” and the mice survived (MRSA strain (S. aureus); i.p. infection model with a MRSA strain) is listed as 20/20. For the same compound, the MIC (S. aureus) was ~ 250 ng/mL and the EC50 [2] was over 100000 nM.

In the case of `c1cc2cc(-c3ccc(-c4cc5ccc(C6=NCCN6)cc5[nH]4)cc3)[nH]c2cc1C1=NCCN1` [Compound 7, 1,4-bis(6-(4,5-dihydro-1H-imidazol-2-yl)-1H-indol-2-yl)benzene], the “efficacy in mice model of infection” value (Yersinia pestis) is given as “effective” and the “efficacy in mice model of infection” value (Bacillus anthracis) is given as “effective”.

For `C(=C\c1cc2ccc(C3=NCCN3)cc2[nH]1)/c1cc2ccc(C3=NCCN3)cc2[nH]1.Cl` [Compound 8], the “efficacy in mice model of infection” value (Yersinia pestis) is given as “effective” and the “efficacy in mice model of infection” value (Bacillus anthracis) is given as “effective”.

Work on `O=C(Nc1cccc(C2=NCCCN2)c1)c1ccc(-c2ccc(C(=O)Nc3cccc(C4=NCCCN4)c3)cc2)cc1` [Compound 10, N4,N4'-bis(3-(1,4,5,6-tetrahydropyrimidin-2-yl)phenyl)biphenyl-4,4'-dicarboxamide] yielded an IC50 [3] of about 5000 nM and an EC50 (E. coli (K12)) of under 1000 nM.

Reference: publication PMC4513954 (Journal of medicinal chemistry, 2015)
